According to patent US20240034723A1, “PIPERIDINYL SMALL MOLECULE DEGRADERS OF HELIOS AND METHODS OF USE” (DANA-FARBER CANCER INSTITUTE, INC., priority 2020, published 2024):

Each molecule was assayed against T1, IKZF2 (Helios) (Homo sapiens, UniProt Q96SW2+Q9UKS7) (assay: HiBiT protocol: HiBiT-Helios degradation in MOLT4 cells (Example 63)). Settings: after 6 hours of treatment, 13-point 10 μM to 0.00026 μM.
T1 construct: CRISPR/Cas-mediated insertion of the HiBiT peptide tag (Promega™) to the N-terminus of the IKZF2 gene locus; endogenous in cells; host or cells: MOLT4 cells, CRISPR/Cas knock-in of HiBiT at the endogenous IKZF2 locus
T1 sequence (Q9UKS7 whole entry): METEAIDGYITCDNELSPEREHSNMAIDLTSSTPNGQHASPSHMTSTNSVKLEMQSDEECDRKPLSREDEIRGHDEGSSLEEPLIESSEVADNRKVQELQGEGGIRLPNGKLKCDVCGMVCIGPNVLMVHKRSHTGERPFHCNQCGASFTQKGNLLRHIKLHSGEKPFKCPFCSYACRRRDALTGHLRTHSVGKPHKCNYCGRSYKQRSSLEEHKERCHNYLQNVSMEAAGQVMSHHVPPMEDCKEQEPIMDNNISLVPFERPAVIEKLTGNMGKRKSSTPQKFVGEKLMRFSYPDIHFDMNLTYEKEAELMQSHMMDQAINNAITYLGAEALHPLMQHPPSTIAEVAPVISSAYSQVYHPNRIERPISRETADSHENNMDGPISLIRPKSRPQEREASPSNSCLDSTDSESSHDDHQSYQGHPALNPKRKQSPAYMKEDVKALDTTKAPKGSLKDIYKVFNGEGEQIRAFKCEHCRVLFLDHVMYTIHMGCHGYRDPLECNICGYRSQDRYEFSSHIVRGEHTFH
T1 sequence (Q96SW2 whole entry): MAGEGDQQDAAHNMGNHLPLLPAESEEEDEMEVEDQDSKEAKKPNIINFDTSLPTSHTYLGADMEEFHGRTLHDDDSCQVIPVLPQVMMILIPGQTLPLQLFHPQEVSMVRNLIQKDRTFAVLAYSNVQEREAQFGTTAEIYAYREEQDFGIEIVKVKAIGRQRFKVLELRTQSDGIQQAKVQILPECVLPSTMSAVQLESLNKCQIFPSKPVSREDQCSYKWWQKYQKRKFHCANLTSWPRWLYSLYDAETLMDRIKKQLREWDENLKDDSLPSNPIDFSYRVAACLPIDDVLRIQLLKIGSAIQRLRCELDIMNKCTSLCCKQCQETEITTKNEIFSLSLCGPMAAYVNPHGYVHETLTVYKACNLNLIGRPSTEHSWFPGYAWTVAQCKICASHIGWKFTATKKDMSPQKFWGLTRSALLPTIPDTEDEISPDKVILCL
T1 sequence (Q16531 whole entry partner): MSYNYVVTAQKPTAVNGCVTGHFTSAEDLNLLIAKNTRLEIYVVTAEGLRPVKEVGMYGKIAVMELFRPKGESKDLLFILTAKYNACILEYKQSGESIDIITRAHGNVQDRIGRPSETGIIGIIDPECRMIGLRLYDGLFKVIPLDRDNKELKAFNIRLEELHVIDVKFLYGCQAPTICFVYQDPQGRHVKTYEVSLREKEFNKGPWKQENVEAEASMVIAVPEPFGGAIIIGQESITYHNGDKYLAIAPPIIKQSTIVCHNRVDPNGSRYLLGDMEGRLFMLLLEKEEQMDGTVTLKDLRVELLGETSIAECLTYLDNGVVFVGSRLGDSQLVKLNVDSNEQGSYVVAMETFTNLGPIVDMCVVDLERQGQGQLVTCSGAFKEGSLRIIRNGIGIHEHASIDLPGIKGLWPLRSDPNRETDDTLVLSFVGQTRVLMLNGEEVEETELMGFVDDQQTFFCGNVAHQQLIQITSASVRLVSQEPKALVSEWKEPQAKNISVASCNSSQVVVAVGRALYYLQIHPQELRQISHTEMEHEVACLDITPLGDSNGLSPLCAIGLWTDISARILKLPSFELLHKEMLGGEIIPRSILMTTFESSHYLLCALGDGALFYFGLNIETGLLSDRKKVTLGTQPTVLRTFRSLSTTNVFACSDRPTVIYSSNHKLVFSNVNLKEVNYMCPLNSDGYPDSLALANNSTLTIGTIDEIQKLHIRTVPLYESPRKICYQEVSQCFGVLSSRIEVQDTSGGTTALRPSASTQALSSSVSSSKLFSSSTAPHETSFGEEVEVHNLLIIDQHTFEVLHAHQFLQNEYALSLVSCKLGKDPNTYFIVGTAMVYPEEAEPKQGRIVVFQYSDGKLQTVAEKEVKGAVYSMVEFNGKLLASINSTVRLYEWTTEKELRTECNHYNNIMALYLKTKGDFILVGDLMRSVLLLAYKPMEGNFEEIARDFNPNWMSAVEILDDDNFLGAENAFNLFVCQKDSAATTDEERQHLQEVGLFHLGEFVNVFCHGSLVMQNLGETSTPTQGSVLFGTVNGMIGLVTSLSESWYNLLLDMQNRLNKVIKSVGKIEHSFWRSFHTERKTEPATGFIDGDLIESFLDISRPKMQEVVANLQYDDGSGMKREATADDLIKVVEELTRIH
Type: cell-based
Protocol: The HiBiT protein tagging system was applied to MOLT4 cells via a CRISPR/Cas-mediated insertion of the HiBiT peptide tag (Promega™) to the N-terminus of the IKZF2 gene locus (Neon™ Transfection System). The resulting HiBiT-Helios stable cell line was treated with the following inventive compounds in triplicates following a 13-point concentration scheme ranging from 10 μM to 0.00026 μM. At the indicated timepoints, the Nano-Glo® HiBiT Lytic Detection system (Promega™) was utilized for detecting bioluminescence of the HiBiT tag in treated cells: the abundance of the tag is proportionate to the level of luminescence. Following normalization to DMSO, dose-response curves were plotted (GraphPad Prism) to determine the concentration points at which 50% of HiBiT-Helios degradation was achieved by each compound. The extent of degradation (range of luminescence) from the highest to lowest concentration points was calculated to determine Dmax.
For `Cn1cccc(Nc2cccc(CN3CCC(c4ccc5c(c4)CN(C4CCC(=O)NC4=O)C5=O)CC3)c2)c1=O` (centres unmarked) [Compound 12, 3-(5-(1-(3-((1-Methyl-2-oxo-1,2-dihydropyridin-3-yl)amino)benzyl)piperidin-4-yl)-1-oxoisoindolin-2-yl)piperidine-2,6-dione], the DC50 was 5 to 25 nM. For `O=C1CCC(N2Cc3cc(C4CCN(Cc5ccc6c(c5)C(=O)N(c5cccc(Cl)c5)CCO6)CC4)ccc3C2=O)C(=O)N1` (centres unmarked) [Compound 6], the DC50 was less than 5 nM. With `O=C1CCC(N2Cc3cc(C4CCN(Cc5ccc6ncn(-c7ccccn7)c(=O)c6c5)CC4)ccc3C2=O)C(=O)N1` (centres unmarked) [Compound 31, 3-(1-oxo-5-(1-((4-oxo-3-(pyridin-2-yl)-3,4-dihydroquinazolin-6-yl)methyl)piperidin-4-yl)isoindolin-2-yl)piperidine-2,6-dione] the DC50 was 5 to 25 nM. With `O=C1CCC(N2Cc3cc(C4CCN(Cc5ccc6c(c5)N(c5ccccc5)C(=O)C6)CC4)ccc3C2=O)C(=O)N1` (centres unmarked) [Compound 18, 3-[1-oxo-5-[1-[(2-oxo-1-phenyl-indolin-6-yl)methyl]-4-piperidyl]isoindolin-2-yl]piperidine-2,6-dione] the DC50 was less than 5 nM. Molecule `O=C1CCC(N2Cc3cc(C4CCN(Cc5ccc6c(c5)C(=O)N(c5ncccn5)CCO6)CC4)ccc3C2=O)C(=O)N1` (centres unmarked) [Compound 46] has a DC50 of 5 to 25 nM. `O=C1CCC(N2Cc3cc(C4CCN(Cc5ccc6c(c5)C(=O)N(c5ccsn5)CCO6)CC4)ccc3C2=O)C(=O)N1` (centres unmarked) [Compound 48] showed a DC50 of 5 to 25 nM. `O=C1CCC(N2Cc3cc(C4CCN(Cc5ccc6c(c5)N(c5ccccc5)C(=O)CCC6)CC4)ccc3C2=O)C(=O)N1` (centres unmarked) [Compound 22] gave a DC50 of 5 to 25 nM. Molecule `O=C1CCC(N2Cc3cc(C4CCN(Cc5ccc6c(c5)C(=O)N(c5ccccc5F)CCO6)CC4)ccc3C2=O)C(=O)N1` (centres unmarked) [Compound 45] has a DC50 of less than 5 nM. `O=C1CCC(N2Cc3cc(C4CCN(Cc5ccc6cnn(-c7ccccn7)c(=O)c6c5)CC4)ccc3C2=O)C(=O)N1` (centres unmarked) [Compound 43, 3-[1-oxo-5-[1-[[4-oxo-3-(2-pyridyl)phthalazin-6-yl]methyl]-4-piperidyl]isoindolin-2-yl]piperidine-2,6-dione] showed a DC50 of 5 to 25 nM. `O=C1CCC(N2Cc3cc(C4CCN(Cc5ccc6ncn(-c7ncccc7F)c(=O)c6c5)CC4)ccc3C2=O)C(=O)N1` (centres unmarked) [Compound 58] showed a DC50 of less than 5 nM. Molecule `O=C1CCC(N2Cc3cc(C4CCN(Cc5ccc6ncn(-c7ccns7)c(=O)c6c5)CC4)ccc3C2=O)C(=O)N1` (centres unmarked) [Compound 59] has a DC50 of 5 to 25 nM. Work on `O=C1CCC(N2Cc3cc(C4CCN(Cc5ccc6ccc(-c7ccccc7)nc6c5)CC4)ccc3C2=O)C(=O)N1` (centres unmarked) [Compound 41] yielded a DC50 of 25 to 100 nM. With `O=C1CCC(N2Cc3cc(C4CCN(Cc5ccc6c(c5)C(=O)N(c5ccns5)CCO6)CC4)ccc3C2=O)C(=O)N1` (centres unmarked) [Compound 49] the DC50 was less than 5 nM. Molecule `O=C1CCC(N2Cc3cc(C4CCN(Cc5ccc6ncn(-c7ccccc7)c(=O)c6c5)CC4)ccc3C2=O)C(=O)N1` (centres unmarked) [Compound 44] has a DC50 of 5 to 25 nM. For `O=C1CCC(N2Cc3cc(C4CCN(Cc5ccc6ccn(-c7ccccn7)c(=O)c6c5)CC4)ccc3C2=O)C(=O)N1` (centres unmarked) [Compound 57], the DC50 was less than 5 nM. `O=C1CCC(N2Cc3cc(C4CCN(Cc5cc6n(n5)CCN(c5ccccc5)C6=O)CC4)ccc3C2=O)C(=O)N1` (centres unmarked) [Compound 8, 3-(1-oxo-5-(1-((4-oxo-5-phenyl-4,5,6,7-tetrahydropyrazolo[1,5a]pyrazin-2-yl)methyl)piperidin-4-yl)isoindolin-2-yl)piperidine-2,6-dione] showed a DC50 of 5 to 25 nM. `O=C1CCC(N2Cc3cc(C4CCN(Cc5ccc6c(c5)C(=O)N(c5ccccc5)CCO6)CC4)ccc3C2=O)C(=O)N1` (centres unmarked) [Compound 1, 3-(1-oxo-5-(1-((5-oxo-4-phenyl-2,3,4,5-tetrahydrobenzo[f][1,4]oxazepin-7-yl)methyl)piperidin-4-yl)isoindolin-2-yl)piperidine-2,6-dione] was tested, and the DC50 was less than 5 nM. `O=C1CCC(N2Cc3cc(C4CCN(Cc5ccc6cc(-c7ccccc7)nn6c5)CC4)ccc3C2=O)C(=O)N1` (centres unmarked) [Compound 38, 3-[1-oxo-5-[1-[(2-phenylpyrazolo[1,5-a]pyridin-6-yl)methyl]-4-piperidyl]isoindolin-2-yl]piperidine-2,6-dione] showed a DC50 of 5 to 25 nM. For `O=C1CCC(N2Cc3cc(C4CCN(Cc5ccc6ncn(-c7ccccc7F)c(=O)c6c5)CC4)ccc3C2=O)C(=O)N1` (centres unmarked) [Compound 27], the DC50 was 5 to 25 nM. `O=C1CCC(N2Cc3cc(C4CCN(Cc5ccc6c(c5)C(=O)N(c5ccncn5)CCO6)CC4)ccc3C2=O)C(=O)N1` (centres unmarked) [Compound 47] gave a DC50 of 5 to 25 nM. `O=C1CCC(N2Cc3cc(C4CCN(Cc5ccc6c(c5)C(=O)N(c5ccccn5)CCO6)CC4)ccc3C2=O)C(=O)N1` (centres unmarked) [Compound 3] was tested, and the DC50 was 5 to 25 nM. In the case of `O=C1CCC(N2Cc3cc(C4CCN(Cc5ccc6c(c5)C(=O)N(c5cccc(F)c5)CCO6)CC4)ccc3C2=O)C(=O)N1` (centres unmarked) [Compound 5], the DC50 is reported as less than 5 nM. With `O=C1CCC(N2Cc3cc(C4CCN(Cc5ccc6cn(-c7ccccc7)nc6c5)CC4)ccc3C2=O)C(=O)N1` (centres unmarked) [Compound 42] the DC50 was less than 5 nM.
